Source: patent US20190031676A1, “ANTIBACTERIAL ANNULATED PYRROLIDIN-2-ONE DERIVATIVES” (priority 2015, published 2019)
In brackets after ≈: the same amount, converted by molar mass. Where two headings read alike, the source gives them in different places.

What was measured:
Type in all cases: cell-based
wild-type E. coli A-1261 = assay: MIC against wild-type E. coli A-1261 with or without alkaline phosphatase or esterase (prodrug activation); conditions: Escherichia coli
Protocol: Minimal Inhibitory Concentrations (MICs; mg/L) were determined in cation-adjusted Mueller-Hinton Broth by a microdilution method following the description given in “Methods for Dilution Antimicrobial Susceptibility Tests for Bacteria that grow Aerobically”, Approved standard, 7th ed., Clinical and Laboratory Standards Institute (CLSI) Document M7-A7, Wayne, Pa., USA (2006). The compounds of Examples 4 and 16 were tested against wild-type E. coli A-1261 in the absence of alkaline phosphatase or esterase, in the presence of an alkaline phosphatase, and in the presence of an esterase. The corresponding antibacterial test results are given in Table 2 hereafter (MICs in mg/L).

P. aeruginosa ATCC27853 = assay: Bacterial growth minimal inhibitory concentration (microdilution, cation-adjusted Mueller-Hinton Broth); conditions: Pseudomonas aeruginosa, ATCC27853; quinolone-sensitive strain
Protocol: (§1) Minimal Inhibitory Concentrations (MICs; mg/L) were determined in cation-adjusted Mueller-Hinton Broth by a microdilution method following the description given in “Methods for Dilution Antimicrobial Susceptibility Tests for Bacteria that grow Aerobically”, Approved standard, 7th ed., Clinical and Laboratory Standards Institute (CLSI) Document M7-A7, Wayne, Pa., USA (2006).
(§2) All Example compounds were tested against several Gram-positive and Gram-negative bacteria. […] K. pneumoniae A-651 is a multiply-resistant strain (in particular quinolone-resistant), while E. coli ATCC25922 and P. aeruginosa ATCC27853 are quinolone-sensitive strains.

K. pneumoniae A-651 = assay: as above; conditions: Klebsiella pneumoniae, A651; multiply-resistant strain (in particular quinolone-resistant)
Protocol: as §1, §2

E. coli ATCC25922 = assay: as above; conditions: Escherichia coli, ATCC25922; quinolone-sensitive strain
Protocol: as §1, §2

[1] = alkaline phosphatase 2 i.U./mL, read-out: MIC for E. coli A-1261 In the presence of an alkaline phosphatase (2 i.U./mL)
[2] = esterase 10 i.U./mL, read-out: MIC for E. coli A-1261 In the presence of an esterase (10 i.U./mL)
[3] = no alkaline phosphatase or esterase, read-out: MIC for E. coli A-1261 In the absence of alkaline phosphatase or esterase

MIC (wild-type E. coli A-1261; [1]) [µg/mL]	MIC (wild-type E. coli A-1261; [2]) [µg/mL]	MIC (wild-type E. coli A-1261; [3]) [µg/mL]	MIC (P. aeruginosa ATCC27853) [µg/mL]	MIC (K. pneumoniae A-651) [µg/mL]	MIC (E. coli ATCC25922) [µg/mL]	SMILES
0.25	0.25	0.125 (≈ 0.267 µM)	0.5 (≈ 1.07 µM)	0.5 (≈ 1.07 µM)	0.25 (≈ 0.534 µM)	C[C@@](CCN1Cc2cc(C#CC#C[C@H]3C[C@]3(F)CO)sc2C1=O)(C(=O)NO)S(C)(=O)=O [Example 4, (2R)-4-(2-(((1R,2R)-2-fluoro-2-(hydroxymethyl)cyclopropyl)buta-1,3-diyn-1-yl)-6-oxo-4,6-dihydro-5H-thieno[2,3-c]pyrrol-5-yl)-N-hydroxy-2-methyl-2-(methylsulfonyl)butanamide]
0.25	> 8	> 8				C[C@@](CCN1Cc2cc(C#CC#C[C@H]3C[C@]3(F)COP(=O)(O)O)sc2C1=O)(C(=O)NO)S(C)(=O)=O [Example 16, ((1R,2R)-1-fluoro-2-((5-((3R)-4-(hydroxyamino)-3-methyl-3-(methylsulfonyl)-4-oxobutyl)-6-oxo-5,6-dihydro-4H-thieno[2,3-c]pyrrol-2-yl)buta-1,3-diyn-1-yl)cyclopropyl)methyl dihydrogen phosphate]
